In US6699676B1, “Uses of ouabain and ouabain-like molecules in apoptosis related pathologies” (Corporation du Centre de Recherche du Centre, Hospitalier …, priority 1999, dated 2004):

What was measured:
VSMC-E1A = test: 3'-end DNA labeling / DNA laddering in VSMC-E1A; format: cell-based, rat; settings: 1 mM ouabain, serum deprivation
Description: FIG. 3. Effect of ouabain on morphology (A) and DNA laddering (B and C) in VSMC-E1A. In experiments with ouabain, cells were pretreated with 1 mM of this compound 1 hour before 6 hours exposure to serum-free medium. A. Cell morphology was evaluated by phase contrast microscopy without preliminary fixation. a, c) DMEM containing 10% calf serum; b, d) serum-free DMEM; a, b) without ouabain; c, d) in the presence of ouabain. Micro graphs were prepared using a Nikon phase contrast microscope at ×100 magnification. Apoptotic cells are shown by arrows. B. DNA laddering (left part of the figure) was analyzed with a PhosphorImager, and relative content of low molecular weight DNA fragments (1,500−125 bp−right part of the figure) in cells incubated with 10% calf serum (CS) in the absence of ouabain was taken as 100%. Means±S.E. obtained in 2 experiments performed in triplicate are shown.
3′-end DNA labeling. VSMC-E1A seeded in 75 cm^2 flasks were treated with 4 ml of lysis buffer containing 50 mM tris-HCI, 20 mM EDTA (pH 8.0), 0.5% SDS and 500 μg/ml proteinase K. The lysate was incubated at 50° C. for 3 hours, mixed with 250 μg/ml RNAase A and incubated for 1 hour at 37° C. […] After 1 hour incubation at 37° C., the aliquots were loaded on 1.5% agarose gel, run at 100 V for 3 to 4 hours, transferred onto a nylon membrane (Hybond N+, Amersham), and analyzed with a PhosphorImager. […]

VSMC [1] = test: Chromatin cleavage assay in non-transfected VSMC; format: cell-based, rat
Description: Cells were incubated in K^+-containing medium consisting of 91 mM NaCl, 5 mM KCl, 0.9 mM NaH2PO4, 44 mM NaHCO3, 1.8 mM CaCl2, 0.8 mM MgCl2, 33 mM HEPES and 5 mM D-glucose (pH 7.4) (lines 1 and 2) or in K^+-depleted medium (equimolar substitution of KCl by NaCl, line 3) with or without 10% calf serum (CS) and 1 mM ouabain as indicated. In experiments with VSMC-MYC and VSMC-E1A, cells were preincubated for 1 hr with ouabain or with K^+-depleted medium in the presence of CS and then subjected to treatment with serum-free media. After 24 hours (VSMC) or 6 hours (VSMC-MYC and VSMC-E1A), the content of chromatin fragments was measured as described in Experimental Procedures. Mean values±S.E. obtained in 3 experiments performed in quadruplicate (VSMC) or triplicate (VSMC-MYC, VSMC-E1A) are given. ★, ★★ p<0.05 and 0.001 compared to the controls.
VSMC growing in 6-well (LDH release) or 24-well (chromatin cleavage assay) plates were preincubated for 3 hours with or without 1 mM ouabain. In part of the experiments, the cells were subjected to 30 min incubation at 46° C. (heat-treated cells, line 3). They were then incubated in the absence or presence of 10% calf serum during additional 8 hr and chromatin cleavage and LDH release were measured as indicated in Experimental Procedures and with a spectrophotometric kit (Sigma), respectively. Means±S.E. from experiments performed in triplicate (LDH release) or quadruplicate (chromatin cleavage) are given. ★, ★★ p<0.05 and 0.001 compared to ouabain-untreated cells. #p<0.001 compared to serum-supplied, heat-untreated cells.
Cells. VSMC were obtained by explant methods from aortas of 10- to 13-week-old male rats as described previously (17), cultured in DMEM with 10% calf serum, 100 U/ml penicillin, 100 µg/ml streptomycin and used between 10 to 16 passages. Cells transfected with c-myc (VSMC-MYC) and E1A-adenovirus (VSMC-E1A) were obtained in accordance with a previously-described protocol (18,19) and were cultured in the same medium with the addition of 500 µg/ml genticin. Jurkat cells were obtained from the American Type Culture Collection and cultured in RPMI 1640 medium supplied with 10% calf serum, antibiotics, sodium pyruvate, glutamate and β-mercaptoethanol.
Chromatin cleavage assay. Chromatin cleavage in VSMC was estimated by a technique described previously in detail (10). Briefly, VSMC grown in 24-well dishes were labeled for 24 hours in serum-supplied DMEM with [^3H]-thymidine (1 μCi/ml), washed with 2×2 ml of DMEM and incubated in serum-supplied DMEM. […] After 15 min, the cell lysate was transferred to Ependorf tubes, sedimented (12,000 rpm, 10 mm), and 1 ml of supernatant was transferred for the measurement of radioactivity (A1t). The remaining radioactivity from pellets and wells was extracted with 0.5 ml of 1% SDS/4 mM EDTA mixture, combined and counted (A2). Chromatin cleavage was quantified as the content of chromatin fragments normalized by total content of [^3H]-labeled DNA in accordance with the equation [1.5×(A1t−A1o)/(A2+A1t−1.5A1o)]×100% where A1o is the value of A1t before induction of apoptosis. […] At the time intervals shown in FIG. 4, 100 μl of cell suspension was mixed with 100 μl of PBS contairung 0.5% triton X100, and the content of chromatin fragments was measured as described previously in detail (20).

VSMC [2] = test: ATP content in VSMC; settings: 8 hours incubation with ouabain, data not shown

C[C@@H]1O[C@@H](O[C@H]2C[C@@H](O)[C@]3(CO)[C@H]4[C@H](O)C[C@]5(C)[C@@H](C6=CC(=O)OC6)CC[C@]5(O)[C@@H]4CC[C@]3(O)C2)[C@H](O)[C@H](O)[C@H]1O [Ouabain, 1β,3β,5,11α,14,19-hexahydroxycard 20 [22]-enolide 3-[6-deoxy-α-L-mannopyrano-sidel]]
DNA laddering and low molecular weight 3'-end labeled DNA fragments (VSMC-E1A): prevented DNA laddering | Chromatin fragments (%) (VSMC [1]; VSMC, 10% CS, 1 mM ouabain, 24 hours): 1.6 ± 0.3% | Chromatin fragments (%) (VSMC [1]; VSMC, CS-free, 1 mM ouabain, 24 hours): 2.5 ± 0.6 % | Chromatin fragments (%) (VSMC [1]; serum-deprived VSMC, 3 hours preincubation 1 mM ouabain, additional 8 hr): 1.8 ± 0.3 % | Chromatin fragments (%) (VSMC [1]; serum-supplied VSMC, 3 hours preincubation 1 mM ouabain, additional 8 hr): 1.3 ± 0.4 % | Chromatin fragments (%) (VSMC [1]; serum-supplied, heat-treated (46° C., 30 min) VSMC, 1 mM ouabain, 8 hr): 1.6 ± 0.4% | ATP content (VSMC [2]): did not observe any significant effect
